The structures appear in SMILES notation.

The values below come from paper PMC1890308, “Anti-calmodulins and Tricyclic Adjuvants in Pain Therapy Block the TRPV1 Channel” (PLoS ONE, 2007).

For one assay, the system named is kainic acid receptors. Kind of assay: kainic acid-evoked responses of spinal dorsal horn neurons, microiontophoresis. The format is in vivo. The settings on record: anesthetized rat, iontophoresis, mean±SD, n = 16. On the procedure: In another set of experiments, effects of calmidazolium were investigated on the responses of dorsal horn neurons evoked by NMDA and kainic acid agonists of different glutamate receptors, well characterized transducers of pain signals, more centrally. Neuronal firing responses to iontophoresed NMDA or kainic acid were typically fast in onset and short in duration (Fig. 8). Ejection currents for these excitatory agents were delivered alternately in every 2 min and were selected to produce a maximal peak height of 50–70 spikes/s which corresponded to 300–400 action potentials per stimulation epoch. Iontophoretic application of calmidazolium produced significant reduction in responses to both NMDA and kainic acid. Maximal inhibition of NMDA- or kainic acid -evoked responses were reached 15–20 min after calmidazolium application and remained so during the rest of the 2 hour long experiment. […]
Extracellular single-neuron recordings were made in chloral hydrate-anesthetized ([…] initial dose, i.p., with supplemental doses as required) male Wistar rats weighing between 350–450 g. […] Rectal temperature as well as the temperature of the mineral oil were monitored with temperature probes and kept at 37°C by a warm water-heated blanket beneath the rat and an infrared heat lamp from above. […]

For assay [1], the system named is heat evoked responses of dorsal horn neurons. In words: heat-evoked responses of spinal dorsal horn neurons, microiontophoresis, extracellular single unit recording. The format is in vivo, rat. On the procedure:
To validate in vivo efficacy of calmidazolium, experiments were carried out in a total of 22 nociceptive specific (NS) or wide dynamic range (WDR) spinal dorsal horn neurons in 16 lightly anesthetized rats. Effects of calmidazolium were studied on the heat evoked responses of dorsal horn neurons using noxious peripheral heat stimuli delivered in every 3 min in the cutaneous receptive field of the hind paw. After establishing stable baseline control responses, calmidazolium was iontophoresed (i.e. with 100 nA) from one of the barrels of the compound electrode. […] The calmidazolium evoked inhibition reached its maximum within 10 to 15 min after ejection and lasted throughout the entire recording periods (about 2 hrs) of the experiment. The monitored cells had excitatory receptive fields located on one of the hind paws. These cells usually had little spontaneous activity, located between 100–600 µm from the surface of the dorsal horn, as estimated by microdrive readings. […] Likewise to that determined previously in TRPV1-NIH3T3 cells, TRPV1-HaCaT keratinocyte lines and primary culture of nociceptive neurons, calmidazolium inhibited the ratemeter recorded signals of radiation heat pain in the rat (Fig. 7). […]

Assay [2] has as its system intermediate Ca2+-activated K+ channels (IKCa). The settings on record: human erythrocytes; cited from earlier work.

For `Clc1ccc(C(c2ccc(Cl)cc2)n2cc[n+](CC(OCc3ccc(Cl)cc3Cl)c3ccc(Cl)cc3Cl)c2)cc1` (stereo not shown) [calmidazolium], in the assay on kainic acid receptors, the “responses to kainic acid, % of pre-calmidazolium baseline control” value is 47±20%. The “heat-evoked responses, % of pre-calmidazolium baseline control” value in assay [1] (anesthetized rat, iontophoresis 100 nA, noxious peripheral heat on hind paw, mean±SD, n = 6) was found to be 34±23%. Moreover, the “duration of inhibition (entire recording period)” value in assay [1] (heat-evoked responses, rat) was “about 2 hrs”. Also, in assay [2], the “activity on IKCa channels (in words)” value is “inactive”.
